As a reminder, the IC50 is the concentration that gives 50% inhibition.

For four compounds, IC50 results are on record in patent publication US20100204222A1, “PYRIDOPYRIMIDINE DERIVATIVES AS P13 KINASE INHIBITORS” (GlaxoSmithKline, LLC, priority 2007, published 2010).

For the test, the target named is T1, PI3Kα (Homo sapiens, UniProt P42336).
T1 construct: His; made in house
T1 sequence (P42336 whole entry): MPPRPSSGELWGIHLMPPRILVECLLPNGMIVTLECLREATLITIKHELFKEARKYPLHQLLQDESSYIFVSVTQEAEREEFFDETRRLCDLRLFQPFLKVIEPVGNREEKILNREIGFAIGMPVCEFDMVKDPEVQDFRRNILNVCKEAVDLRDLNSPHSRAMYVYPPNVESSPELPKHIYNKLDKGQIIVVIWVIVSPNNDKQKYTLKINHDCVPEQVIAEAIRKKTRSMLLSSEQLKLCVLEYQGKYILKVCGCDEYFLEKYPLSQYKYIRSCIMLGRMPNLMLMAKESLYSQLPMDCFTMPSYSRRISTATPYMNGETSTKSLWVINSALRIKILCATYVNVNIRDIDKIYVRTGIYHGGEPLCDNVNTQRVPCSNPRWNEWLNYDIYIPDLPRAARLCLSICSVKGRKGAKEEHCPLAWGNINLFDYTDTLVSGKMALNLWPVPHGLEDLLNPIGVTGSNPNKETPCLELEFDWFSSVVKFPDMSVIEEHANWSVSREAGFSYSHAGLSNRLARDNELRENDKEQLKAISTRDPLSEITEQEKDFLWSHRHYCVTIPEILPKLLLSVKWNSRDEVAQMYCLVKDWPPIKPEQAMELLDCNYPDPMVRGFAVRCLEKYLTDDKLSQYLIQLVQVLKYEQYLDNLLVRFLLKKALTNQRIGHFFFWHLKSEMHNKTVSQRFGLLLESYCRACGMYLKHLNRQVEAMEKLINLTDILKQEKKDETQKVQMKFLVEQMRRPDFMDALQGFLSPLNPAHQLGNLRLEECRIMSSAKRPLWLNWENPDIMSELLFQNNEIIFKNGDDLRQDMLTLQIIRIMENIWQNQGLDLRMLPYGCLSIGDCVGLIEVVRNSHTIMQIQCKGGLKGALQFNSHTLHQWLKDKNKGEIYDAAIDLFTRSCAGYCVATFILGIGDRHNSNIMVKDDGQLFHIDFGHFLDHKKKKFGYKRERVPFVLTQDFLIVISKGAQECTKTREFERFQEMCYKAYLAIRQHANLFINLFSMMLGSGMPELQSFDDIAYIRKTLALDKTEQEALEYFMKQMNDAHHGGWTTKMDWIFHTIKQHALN
T1 sequence (P27986 whole entry partner): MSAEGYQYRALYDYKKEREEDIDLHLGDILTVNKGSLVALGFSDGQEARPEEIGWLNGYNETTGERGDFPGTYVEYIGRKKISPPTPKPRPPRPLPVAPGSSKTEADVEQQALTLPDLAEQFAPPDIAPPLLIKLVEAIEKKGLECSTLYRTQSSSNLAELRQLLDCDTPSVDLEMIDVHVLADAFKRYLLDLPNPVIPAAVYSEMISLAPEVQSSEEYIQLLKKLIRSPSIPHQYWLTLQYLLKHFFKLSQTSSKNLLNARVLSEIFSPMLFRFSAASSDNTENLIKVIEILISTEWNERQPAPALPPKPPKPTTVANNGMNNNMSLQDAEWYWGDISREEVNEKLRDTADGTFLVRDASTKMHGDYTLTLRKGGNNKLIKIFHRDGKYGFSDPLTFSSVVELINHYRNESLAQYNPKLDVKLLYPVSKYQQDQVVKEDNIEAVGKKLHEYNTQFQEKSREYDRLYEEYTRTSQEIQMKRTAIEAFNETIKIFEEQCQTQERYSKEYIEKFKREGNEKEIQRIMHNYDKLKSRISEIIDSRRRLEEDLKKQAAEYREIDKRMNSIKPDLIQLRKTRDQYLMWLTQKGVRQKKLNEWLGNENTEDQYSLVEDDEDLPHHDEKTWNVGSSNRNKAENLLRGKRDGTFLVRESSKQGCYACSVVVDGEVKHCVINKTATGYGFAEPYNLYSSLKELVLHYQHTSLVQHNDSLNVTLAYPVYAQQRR
The experiment in a line: PI3K alpha TR-FRET assay / PI3K alpha Leadseeker SPA assay. Type of test: biochemical. As to conditions: in at least one experimental run; read-out: IC50 value against PI3Kα. Here is the method:
Compounds of the present invention were tested according to the following assays and found as inhibitors of PI3 kinases, particularly PI3Kα. The exemplified compounds were tested and found active against PI3Kα. The IC50's ranged from about 1 nM to 10 μM.
The PI3-Kinase assay has been developed and optimized from a kit produced by Upstate (Millipore). Briefly, this kit contains a biotinylated PIP3 which forms a HTRF (homogeneous time-resolved fluorescence energy transfer) complex when mixed with a Europium labeled anti-GST monoclonal antibody, a GST tagged pleckstrin homology (PH) domain, and Streptavidin-Allophycocyanin (APC). The unlabeled PIP3 produced by PI 3-Kinase activity displaces biotin-PIP3 from the complex resulting in a loss of energy transfer and thus a decrease in signal. Millipore, PI 3-Kinase (human) HTRF™ Assay, technical document associated with catalog# 33-017
Compounds are serially diluted (3-fold in 100% DMSO) across a polypropylene 120 μL mother plate from column 1 to column 12 and column 13 to column 24, leaving columns 6 and 18 containing only DMSO to yield 11 concentrations for each test compound. Once titrations are made, 0.1 μL is transferred to the assay plates (Greiner 784075). This assay plate contains three controls: column 6 with DMSO, and column 18 with alternating 20 μM wortmannin and 40 μM PIP3. […] The PIP3 control is dispensed into the plate manually via a matrix pipettor, 1 μL of 200 μM PIP3 in 1× Reaction buffer to wells 18 B, D, F, H, J, L, N, P.
The PI3-Kinase assay has been developed and optimized from a kit produced by Upstate (Millipore). The assay kit (cat: 33-017) contains seven reagents: 1) 4× Reaction Buffer, 2) PIP2 (1 mM), 3) Stop A, 4) Stop B, 5) Detection Mix A, 6) Detection Mix B, 7) Detection Mix C. In addition the following items were obtained or purchased, PI3Kinase (prepared in-house), 4×PI3K Detection Buffer (Millipore), dithiothreitol (Sigma, D-5545), Adenosine-5′-triphosphate (ATP, Sigma, A-6419), PIP3 (1,2-dioctanoyl-sn-glycero-3[phosphoinositil-3,4,5-triphosphate]tetraammonium salt (Avanti polar lipids, 850186P), DMSO (Sigma, 472301), Wortmannin (Sigma, W-1628).
Prepare 1×PI3Kinase Reaction Buffer by diluting stock 1:4 with de-ionized water, freshly prepared DTT is added at a final concentration of 5 mM on the day of use. Enzyme addition and compound preincubation is initiated by the addition of 2.5 μL of 2× enzyme solution, PI3K alpha in 1× reaction buffer, to all wells using a Multidrop Combi. Plates are incubated at room temperature for 15 minutes. Substrate addition and reaction initiation is completed by the addition of 2.5 μL of 2× substrate solution, PIP2 and ATP in 1× reaction buffer, to all wells using a Multidrop Combi. […] Incubate one hour, evaluate the HTRF signal on the Envision plate reader. […]
On the technique in general: Time-resolved FRET reads energy transfer from a long-lived donor to a nearby acceptor.
Take `CN(C)c1ncnc2ccc(-c3cncc(NS(=O)(=O)c4ccccc4)c3)nc12` [Example 1, N-{5-[4-(dimethylamino)pyrido[3,2-d]pyrimidin-6-yl]-3-pyridinyl}benzenesulfonamide]: the IC50 was found to be 2000 pM.
As for `COc1ncc(-c2ccc3ncnc(N4CCOCC4)c3n2)cc1NS(=O)(=O)C1CC1` [Example 5, N-{2-(methyloxy)-5-[4-(4-morpholinyl)pyrido[3,2-d]pyrimidin-6-yl]-3-pyridinyl}cyclopropanesulfonamide], the IC50 turned out to be 500 pM.
As to `O=S(=O)(Nc1cncc(-c2ccc3ncnc(N4CCOCC4)c3n2)c1)c1ccccc1` [Example 2, N-{5-[4-(4-morpholinyl)pyrido[3,2-d]pyrimidin-6-yl]-3-pyridinyl}benzenesulfonamide], the IC50 was found to be 700 pM.
As for `O=S(=O)(Nc1cc(-c2ccc3ncnc(N4CCOCC4)c3n2)cnc1Cl)c1ccc(F)cc1F` [Example 7, N-{2-chloro-5-[4-(4-morpholinyl)pyrido[3,2-d]pyrimidin-6-yl]-3-pyridinyl}-2,4-difluorobenzenesulfonamide], the IC50 was found to be 20 pM.
